Measured values reported in publication PMC4232510, “Identification of Functionally Important Residues of the Rat P2X4 Receptor by Alanine Scanning Mutagenesis of the Dorsal Fin and Left Flipper Domains” (PLoS ONE, 2014).

Experiments:
P2X3R S269A = test system: P2X3R S269A; design: method as in PMID 16226373; key: n.f.: non-functional mutants; ↑: mutant with significant increased EC50 in comparison to WT (values represent fold increase); ≈: close to WT receptor; D: affected time-constant of the desensitizing current response; conditions: cited from earlier work
P2X1R P287C = test system: P2X1R P287C; design: method as in PMID 17428985; key: n.f.: non-functional mutants; ↑: mutant with significant increased EC50 in comparison to WT (values represent fold increase); ≈: close to WT receptor; D: affected time-constant of the desensitizing current response; conditions: cited from earlier work
P2X3R N279A = test system: P2X3R N279A; design: method as in PMID 21098022; conditions: cited from earlier work
P2X1R G288A = test system: P2X1R G288A; design: key: n.f.: non-functional mutants; ↑: mutant with significant increased EC50 in comparison to WT (values represent fold increase); ≈: close to WT receptor; D: affected time-constant of the desensitizing current response; conditions: cited from earlier work
rP2X4R N204A mutant = target: T1, rP2X4R N204A mutant (Rattus norvegicus, UniProt P51577, N204A); format: cell-based
T1 construct: expressed in transfected cells; host or cells: HEK293T
T1 sequence (P51577 whole entry N204A): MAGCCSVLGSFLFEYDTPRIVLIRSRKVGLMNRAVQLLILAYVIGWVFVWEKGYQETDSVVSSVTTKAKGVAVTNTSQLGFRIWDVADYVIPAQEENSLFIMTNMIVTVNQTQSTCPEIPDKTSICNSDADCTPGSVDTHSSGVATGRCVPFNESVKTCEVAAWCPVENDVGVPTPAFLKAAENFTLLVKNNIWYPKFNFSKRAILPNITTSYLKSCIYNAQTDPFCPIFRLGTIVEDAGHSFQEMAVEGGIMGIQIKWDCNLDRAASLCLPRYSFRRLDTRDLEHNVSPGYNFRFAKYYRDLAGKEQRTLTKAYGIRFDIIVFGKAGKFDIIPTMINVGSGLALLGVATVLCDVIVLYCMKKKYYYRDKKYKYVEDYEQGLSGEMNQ
Experimental: To express the recombinant channels, we used human embryonic kidney (HEK) 293T cells (American Type Culture Collection, Rockville, MD, USA) grown in Dulbecco modified Eagle’s medium (Thermo Fisher Scientific, Waltham, MA) supplemented with 10% fetal bovine serum (Sigma-Aldrich, St Louis, MO), 50 U/ml penicillin and 50 µg/ml streptomycin (both Thermo Fisher Scientific, Waltham, MA) in a humidified 5% CO2 and 95% air at 37°C. Cells were cultured in 75 cm^2 plastic culture flasks (NUNC, Rochester, NY) for 36–72 hours until reaching 80–95% confluence. Before the day of transfection, the cells were plated on 35 mm culture dishes (Sarstedt, Newton, NC) and incubated at 37°C for at least 24 h. […] Transfected cells were identified by the fluorescence signal of EGFP using the Olympus IX71 inverted research microscope with fluorescence illuminators (Model IX71; Olympus, Melville, NY). […]
ATP-induced currents were recorded from whole cells clamped to −60 mV using an Axopatch 200B patch-clamp amplifier (Axon Instruments, Union City, CA). […] Potency of ATP was measured based on the activation of naïve (not previously stimulated) receptors using a short (2–5 s) application of various concentrations of ATP. […] One or two responses were recorded from one cell, if not otherwise stated, and responses from different cells were pooled. […]

P2X1R N204A = test system: P2X1R N204A; design: method as in PMID 16371009; conditions: cited from earlier work
P2X1R G288C = test system: P2X1R G288C; design: method as in PMID 17428985; conditions: cited from earlier work
P2X2R D277A = test system: P2X2R D277A; design: method as in PMID 18194442; key: n.f.: non-functional mutants; ↑: mutant with significant increased EC50 in comparison to WT (values represent fold increase); ≈: close to WT receptor; D: affected time-constant of the desensitizing current response; conditions: cited from earlier work
P2X2R N288A = test system: P2X2R N288A; design: method as in PMID 10940304; conditions: cited from earlier work
P2X4R L206A = test system: P2X4R L206A; design: method as in PMID 24943126; key: n.f.: non-functional mutants; ↑: mutant with significant increased EC50 in comparison to WT (values represent fold increase); ≈: close to WT receptor; D: affected time-constant of the desensitizing current response; conditions: cited from earlier work
P2X3R S275A = test system: P2X3R S275A; design: method as in PMID 21879712; key: n.f.: non-functional mutants; ↑: mutant with significant increased EC50 in comparison to WT (values represent fold increase); ≈: close to WT receptor; D: affected time-constant of the desensitizing current response; conditions: cited from earlier work
P2X3R M200C = test system: P2X3R M200C; design: method as in PMID 24989924; conditions: cited from earlier work

Nc1ncnc2c1ncn2[C@@H]1O[C@H](COP(=O)(O)OP(=O)(O)OP(=O)(O)O)[C@@H](O)[C@H]1O [ATP]
change in desensitization (P2X3R S269A): S269A: D[54]
change in EC50 for ATP (P2X1R P287C): P287C: ≈[9]
fold increase of EC50 for ATP in comparison to WT (P2X3R N279A): N279A: ↑20x[4]
change in EC50 for ATP (P2X1R G288A): ≈
Imax+IVM (rP2X4R N204A mutant; ATP after 3 µM IVM 4-6 min): 2.5 ± 0.4 nA
τoff +IVM (rP2X4R N204A mutant; decay after removal of 1 or 3 µM ATP, 3 µM IVM): 5.2 ± 0.6 s
fold increase of EC50 for ATP in comparison to WT (P2X1R N204A): N204A: ↑3,5x[45]
fold increase of EC50 for ATP in comparison to WT (P2X1R G288C): 10 x
change in EC50 for ATP (P2X2R D277A): D277A:: ≈[56]
fold increase of EC50 for ATP in comparison to WT (P2X2R N288A): N288A: ↑>100x[6]
change in EC50 for ATP (P2X4R L206A): L206A: ≈[49]
change in desensitization (P2X3R S275A): S275A: D[55]
fold increase of EC50 for ATP in comparison to WT (P2X3R M200C): M200C:↑8x[58]
